The supplement of paper PMC11061612

Experiments:
Assay in all cases: Bliss excess, mean over the matrix (fraction); higher = more synergy
[1] = system: AN3-CA (Endometrial Carcinoma)
Procedure, shortened: (§1)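 Cell lines in DMEM/F12 or RPMI with 10% FBS were plated in 1536-well plates, held 24 hours at 37°C, 5% CO2, then given two-drug dose matrices for 72 hours (DMSO typically 0.2%). Viability was read by CellTiter-Glo 2.0 luminescence and scaled as inhibition from 0 (vehicle wells) to 1 (blank wells). Combination Emax is the second-highest inhibition in the matrix; Bliss excess is observed combination effect minus expected EA + EB − EA·EB, EA and EB being single-agent effects.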

[2] = system: BALL-1 (B-Lymphoblastic Leukemia)
Procedure, shortened: as §1

[3] = system: Becker (Low Grade Glioma)
Procedure, shortened: as §1

[4] = system: CML-T1 (Chronic Myelogenous Leukemia)
Procedure, shortened: as §1

[5] = system: Calu-6 (Non-Small Cell Lung Carcinoma)
Procedure, shortened: as §1

[6] = system: Caov-3 (Ovarian Carcinoma)
Procedure, shortened: as §1

[7] = system: EB-3 (Burkitt's Lymphoma)
Procedure, shortened: as §1

HuO-3N1 (Osteosarcoma) = system: HuO-3N1 (Osteosarcoma)
Procedure, shortened: as §1

[8] = system: LAMA-84 (Chronic Myelogenous Leukemia)
Procedure, shortened: as §1

[9] = system: LOUCY (T-Lymphoblastic Leukemia)
Procedure, shortened: as §1

[10] = system: NCI-H1155 (Non-Small Cell Lung Carcinoma)
Procedure, shortened: as §1

[11] = system: NCI-H1623 (Lung Adenocarcinoma)
Procedure, shortened: as §1

[12] = system: NCI-H1755 (Lung Adenocarcinoma)
Procedure, shortened: as §1

[13] = system: NCI-H196 (Small Cell Lung Carcinoma)
Procedure, shortened: as §1

[14] = system: OV-90 (Ovarian Carcinoma)
Procedure, shortened: as §1

[15] = system: PANC-02-03 (Pancreatic Carcinoma)
Procedure, shortened: as §1

[16] = system: RERF-LC-KJ (Lung Adenocarcinoma)
Procedure, shortened: as §1

[17] = system: RMG-I (Ovarian Carcinoma)
Procedure, shortened: as §1

[18] = system: SNU-175 (Colorectal Carcinoma)
Procedure, shortened: as §1

[19] = system: SW684 (Other Solid Carcinomas)
Procedure, shortened: as §1

SMILES	Bliss excess [1]	Bliss excess [2]	Bliss excess [3]	Bliss excess [4]	Bliss excess [5]	Bliss excess [6]	Bliss excess [7]	Bliss excess (HuO-3N1 (Osteosarcoma))	Bliss excess [8]	Bliss excess [9]	Bliss excess [10]	Bliss excess [11]	Bliss excess [12]	Bliss excess [13]	Bliss excess [14]	Bliss excess [15]	Bliss excess [16]	Bliss excess [17]	Bliss excess [18]	Bliss excess [19]
COc1cccc(OCCCN)c1-c1cc(Nc2cnc(C#N)cn2)n[nH]1 [Prexasertib] + O=C(c1cc(Cc2n[nH]c(=O)c3ccccc23)ccc1F)N1CCN(C(=O)C2CC2)CC1 [Olaparib] (first compound max 1 µM, 7x7, partner max 10 µM)	-0.0523	-0.0145	-0.0257	-0.03	-0.0701	-0.0138	-0.195	-0.0658	-0.0307	-0.0422	-0.0309	-0.0777	-0.0582	-0.0641	-0.0191	-0.0932	-0.0597	-0.124	0.0762	-0.0742
CN(CCO)CC[C@H](CSc1ccccc1)Nc1ccc(S(=O)(=O)NC(=O)c2ccc(N3CCC([C@@H](O)c4ccccc4-c4ccc(Cl)cc4)CC3)cc2)cc1S(=O)(=O)C(F)(F)F [AZD4320] + CCN(CCO)CCCOc1ccc2c(Nc3cc(CC(=O)Nc4cccc(F)c4)[nH]n3)ncnc2c1 [AZD2811] (first compound max 1 µM, 7x7, partner max 1 µM)	0.101	0.14	-0.027	0.0624	-0.0023	0.0419	-0.0065	-0.0051	0.0319	-0.0011	0.127	-0.0045	-0.0024	-0.0513	0.0409	-0.0246	-0.028	-0.0297	0.0362	-0.0717
CC1(C)CCC(CN2CCN(c3ccc(C(=O)NS(=O)(=O)c4ccc(NCC5CCOCC5)c([N+](=O)[O-])c4)c(Oc4cnc5[nH]ccc5c4)c3)CC2)=C(c2ccc(Cl)cc2)C1 [Venetoclax] + CN(C)CCCOc1ccc(-c2ccc3ncc4c(c3c2)n(C2CCOCC2)c(=O)n4C)cn1 [AZD0156] (first compound max 1 µM, 7x7, partner max 1 µM)	-0.06	0.031	0.0229	0.0232	0.0071	-0.0386	0.0498	-0.0235	0.0018	0.0594	-0.0214	-0.0133	0.0342	-0.0333	-0.041	-0.0541	0.013	-0.016	-0.0511	-0.0333
CC1(C)CCC(CN2CCN(c3ccc(C(=O)NS(=O)(=O)c4ccc(NCC5CCOCC5)c([N+](=O)[O-])c4)c(Oc4cnc5[nH]ccc5c4)c3)CC2)=C(c2ccc(Cl)cc2)C1 [Venetoclax] + Cn1cnc2c(F)c(Nc3ccc(Br)cc3Cl)c(C(=O)NOCCO)cc21 [Selumetinib] (first compound max 1 µM, 7x7, partner max 3 µM)	-0.0076	-0.0026	-0.008	0.0069	-0.0665	-0.0295	-0.0241	-0.011	-0.0157	0.0179	-0.0317	-0.0046	0.0328	-0.044	-0.0345	-0.0386	-0.0265	-0.0727	-0.0157	-0.0631
CN(C)CCCOc1ccc(-c2ccc3ncc4c(c3c2)n(C2CCOCC2)c(=O)n4C)cn1 [AZD0156] + C[C@@H]1COCCN1C2=NC(=NC(=C2)C3(CC3)[S@](=N)(=O)C)C4=C5C=CNC5=NC=C4 [AZD6738] (first compound max 1 µM, 7x7, partner max 10 µM)	-0.0226	0.0274	-0.0248	-0.0095	-0.0139	-0.026	-0.0035	-0.0046	0.0048	0.0196	-0.0289	-0.0236	-0.0249	-0.0414	-0.0323	-0.0412	0.0452	-0.0095	0.0006	-0.0526
Cc1c2c(nn1C)CSCc1cc(n(C)n1)CSc1cc(c3ccccc3c1)OCCCc1c(C(=O)O)n(C)c3c-2c(Cl)ccc13 [AZD5991] + CC1(C)CCC(CN2CCN(c3ccc(C(=O)NS(=O)(=O)c4ccc(NCC5CCOCC5)c([N+](=O)[O-])c4)c(Oc4cnc5[nH]ccc5c4)c3)CC2)=C(c2ccc(Cl)cc2)C1 [Venetoclax] (first compound max 1 µM, 7x7, partner max 1 µM)	0.111	0.117	-0.0033	0.116	-0.0014	0.0262	-0.0151	0.0087	-0.0185	0.154	-0.0079	0.0111	-0.0422	-0.0251	-0.0303	-0.0304	0.0047	-0.0289	0.107	-0.0596
Cc1cc2ncnn2cc1Nc1ncc2c(n1)n(C1CCOCC1)c(=O)n2C [AZD7648] + CCN(CCO)CCCOc1ccc2c(Nc3cc(CC(=O)Nc4cccc(F)c4)[nH]n3)ncnc2c1 [AZD2811] (first compound max 10 µM, 7x7, partner max 1 µM)	0.0113	0.13	0.0154	0.069	0.0268	-0.0523	-0.0338	-0.0184	0.115	-0.043	0.0796	-0.0311	0.0038	-0.0181	-0.017	0.0163	0.0428	0.0097	0.0136	-0.027
C=CCn1c(=O)c2cnc(Nc3ccc(N4CCN(C)CC4)cc3)nc2n1-c1cccc(C(C)(C)O)n1 [AZD1775] + C[C@@H]1COCCN1C2=NC(=NC(=C2)C3(CC3)[S@](=N)(=O)C)C4=C5C=CNC5=NC=C4 [AZD6738] (first compound max 1 µM, partner max 10 µM)	-0.0159	0.0441	0.0428	0.0296		-0.025	0.0002	0.0162	0.0054	0.025	0.0817	0.0057	-0.0276	-0.0093	-0.102	-0.0701	-0.0151	-0.0161	0.039	-0.0662
Cc1c2c(nn1C)CSCc1cc(n(C)n1)CSc1cc(c3ccccc3c1)OCCCc1c(C(=O)O)n(C)c3c-2c(Cl)ccc13 [AZD5991] + CCN(CCO)CCCOc1ccc2c(Nc3cc(CC(=O)Nc4cccc(F)c4)[nH]n3)ncnc2c1 [AZD2811] (first compound max 1 µM, 7x7, partner max 1 µM)	0.0922	0.213	-0.0165	0.0645	-0.0096	0.0236	-0.0197	0.0023	0.128	-0.0389	0.0911	0.0711	0.0561	-0.029	0.0136	-0.0029	0.0402	0.0126	-0.0794	-0.069
Cc1c2c(nn1C)CSCc1cc(n(C)n1)CSc1cc(c3ccccc3c1)OCCCc1c(C(=O)O)n(C)c3c-2c(Cl)ccc13 [AZD5991] + Cc1cc2ncnn2cc1Nc1ncc2c(n1)n(C1CCOCC1)c(=O)n2C [AZD7648] (first compound max 1 µM, 7x7, partner max 10 µM)	-0.0411	-0.0064	0.0005	-0.0205	-0.0338	-0.0436	-0.0379	-0.0229	-0.01	-0.0479	-0.017	0.0374	0.0189	-0.0431	-0.039	-0.0151	0.0171	-0.0389	-0.0125	-0.0222
Cc1c2c(nn1C)CSCc1cc(n(C)n1)CSc1cc(c3ccccc3c1)OCCCc1c(C(=O)O)n(C)c3c-2c(Cl)ccc13 [AZD5991] + CN(C)CCCOc1ccc(-c2ccc3ncc4c(c3c2)n(C2CCOCC2)c(=O)n4C)cn1 [AZD0156] (first compound max 1 µM, 7x7, partner max 1 µM)	-0.0338	0.0361	-0.0128	0.0208	0.0052	0.0036	-0.0005	-0.0067	-0.0051	0.0428	0.0521	-0.015	-0.0214	-0.0207	-0.0068	-0.0241	-0.0296	0.0092	-0.0515	-0.0222
CCc1c2c(nc3ccc(O)cc13)-c1cc3c(c(=O)n1C2)COC(=O)[C@]3(O)CC [SN-38] + O=C(c1cc(Cc2n[nH]c(=O)c3ccccc23)ccc1F)N1CCN(C(=O)C2CC2)CC1 [Olaparib] (first compound max 0.3 µM, 7x7, partner max 10 µM)		0.0629	0.083	-0.0065	0.0211	0.0886	-0.0075	0.075	0.0833	0.0204	0.0532		0.0419		0.0633	0.0609		0.0057	0.0238	-0.0048
